Entries after “also recorded” stand apart in the source; their conditions may differ. Read-outs that look alike come from different tables or passages of the source.
Key:
A549 cells [1] = experiment: cell cycle (BrdU labeling, FACS) and cell morphology; assay type: cell-based, human; conditions: for effect on cell cycle / DNA synthesis: FACS: 4 h, TSA 300 nM, tubacin 2 μM
Procedure: Bromodeoxyuridine labeling and fluorescence-activated cell sorting (FACS) were performed as described (K. M. Koeller et al., Chemistry & Biology, 10 (5) (2003) pp. 397-410). […] Samples were rinsed in PBS, trypsinized, and fixed for two hours in 70% ethanol/30% PBS (4° C.). Cells were then washed once in PBS and stored overnight in PBS (4° C.). To measure acetylated tubulin levels, samples were blocked for 45 minutes in ADB, aspirated, and incubated in ADB with anti-acetylated tubulin (1:500) overnight (4° C.). Samples were washed twice in ADB and incubated in ADB with FITC-conjugated anti-mouse IgG (goat; 1:200) for one hour (room temperature). After washing twice in TBS, cells were resuspended in 100 μL of ribonuclease A (100 μg/mL) and incubated for five minutes (37° C.). To measure the DNA content, 400 μL of propidium iodide (50 μg/mL) was added to the samples and incubated for one hour (room temperature). Samples were analyzed using a FACScanII flow cytometer (Becton-Dickinson), at the Dana Farber Cancer Institute, exciting at 488 nm and measuring the acetylated tubulin-linked FITC fluorescence through a 514 nm bandpass filter and the PI fluorescence through a 600 nm wave-length filter. Cell cycle distributions were calculated from 10,000 cells and modeled using ModFit LT (V2.0) software.

A549 cells [2] = experiment: mitotic abnormalities by immunofluorescence; assay type: cell-based, human; conditions: 18 h or 24 h treatment, TSA 10 μM in FIG. 42C
Procedure: Detection of acetylated α-tubulin and acetylated histones by immunofluorescence was performed as described in Example 6 above. For determining microtubule stability, A549 cells were treated as indicated, fixed in glutaraldehyde, and stained for acetylated α-tubulin and total α-tubulin in antibody dilution buffer (ADB, Tris-buffered saline (TBS), 0.15 M NaCl, 0.02 M Tris-Cl, pH 7.4, with 2% bovine serum albumin and 0.1% Triton-X 100). For cold-depolymerization, cells were incubated at 4° C. or 37° C. for an additional 90 minutes before fixation. For calcium depolymerization, cells were incubated at 37° C. for 10 minutes in a microtubule-stabilizing buffer (0.2% NP-40, 5 mM MgCl2, 2 mM EGTA, 2 M glycerol, 100 mM PIPES, pH 6.8) with and without the addition of CaCl2 (2 mM) before glutaraldehyde fixation. For co-localization experiments, biotubacin (50 μM) treated A549 cells were fixed in 3.7% formaldehyde in TBS and processed as for detecting acetylated α-tubulin (See Example 6 above) with biotubacin detected using streptavidin-TR (1:500). HDAC6 was detected using a rabbit polyclonal antibody (1:250-1:750; C.M.G., unpublished data) under the conditions used to detect acetylated α-tubulin (See Example 6 above). Filamentous actin in HT-1080 cells was detected using TR-conjugated phalloidin (1 μg/mL), and depolymerized actin using FITC-conjugated deoxyribonuclease (10 μg/mL), following fixation in 3.7% formaldehyde in TBS. p58 (1:100) in NIH-3T3 cells was detected after fixation in 3.7% formaldehyde in TBS. Images for these experiments were collected on a Zeiss LSM510 confocal scanning laser microscope at the appropriate wavelengths using the accompanying software and processed with Adobe Photoshop. Deconvoluted serial images of TSA and DMSO treated A549 cells were obtained by taking sections (8μ) on a Zeiss Axioskop 2 microscope using an AxioCam camera and the accompanying software. Rat hippocampal neuronal cultures were fixed at room temperature for 15 min in phosphate-buffered saline (PBS) containing 4% paraformaldehyde. […]

| Compound | effect on cell cycle / DNA synthesis (A549 cells [1]) | mitotic abnormalities (A549 cells [2]) | effect on cell morphology (A549 cells [1]) | effect on cell cycle / DNA synthesis (A549 cells [1]; listed as JCWII114) | effect on cell morphology (A549 cells [1]; listed as JCWII114) |
| --- | --- | --- | --- | --- | --- |
| CC(/C=C/C(=O)NO)=C\[C@@H](C)C(=O)c1ccc(N(C)C)cc1 [TSA, trichostatin A, reference compound] | marked loss of a BrdU-positive S-phase population | Mitotic abnormalities in A549 cells induced by TSA; also recorded: caused a significant number of abnormal mitotic cells | – | – | – |
| O=C(CCCCCCC(=O)Nc1ccc([C@@H]2OC(c3ccc(CO)cc3)C[C@H](CSc3nc(-c4ccccc4)c(-c4ccccc4)o3)O2)cc1)NO (stereo partly shown) [tubacin] | No effect of tubacin on DNA synthesis or cell cycle distribution; also recorded: had no such effects | did not increase the frequency of mitotic abnormalities; also recorded: had neither an effect on the number of mitotic cells nor spindle morphology | had no overall effect on the morphology of A549 cells | no apparent affect on the cell cycle or on cell morphology | no apparent affect on the cell cycle or on cell morphology |

— patent US8178579B2, “Dioxanes and uses thereof” (President and Fellows of Harvard College, priority 2001, dated 2012)
